Reference: PubChem BioAssay (NCI)
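Assay format: 96-well plates, 48-hour exposure. TGI is the concentration that stops growth completely.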

Tests used:
Assay in all cases: growth of human tumour cells (NCI), 48 h
[1] = system: CCRF-CEM leukemia
[2] = system: DLD-1 colon
[3] = system: SW-620 colon
[4] = system: KM20L2 colon
[5] = system: CAKI-1 renal
[6] = system: SK-MEL-28 melanoma
[7] = system: HCT-116 colon
[8] = system: SK-MEL-5 melanoma
[9] = system: OVCAR-3 ovarian
[10] = system: NCI-H460 lung
[11] = system: SK-MEL-2 melanoma
[12] = system: A498 renal
[13] = system: MOLT-4 leukemia
[14] = system: HOP-18 NSCLC
[15] = system: SN12C renal
[16] = system: NCI-H23 lung
[17] = system: HT29 colon
[18] = system: HOP-92 NSCLC
[19] = system: A549 NSCLC
[20] = system: DMS 273 small cell lung
[21] = system: NCI-H522 lung
[22] = system: K-562 leukemia
[23] = system: OVCAR-5 ovarian
[24] = system: SK-OV-3 ovarian
[25] = system: SF-268 CNS
[26] = system: KM12 colon
[27] = system: M19-MEL melanoma
[28] = system: DMS 114 small cell lung
[29] = system: U251 CNS
[30] = system: SNB-19 CNS
[31] = system: M14 melanoma
[32] = system: HCT-15 colon
[33] = system: UO-31 renal
[34] = system: UACC-62 melanoma
[35] = system: OVCAR-8 ovarian
[36] = system: SR leukemia
[37] = system: SF-539 CNS
[38] = system: SF-295 CNS
[39] = system: IGROV1 ovarian
[40] = system: OVCAR-4 ovarian
[41] = system: RPMI-8226 leukemia
[42] = system: HCC-2998 colon
[43] = system: LOX IMVI melanoma
[44] = system: LXFL 529 NSCLC
[45] = system: SNB-75 CNS
[46] = system: TK-10 renal
[47] = system: HL-60(TB) leukemia
[48] = system: 786-0 renal
[49] = system: MALME-3M melanoma
[50] = system: HOP-62 NSCLC
[51] = system: ACHN renal
[52] = system: COLO 205 colon
[53] = system: NCI-H226 lung
[54] = system: EKVX NSCLC
[55] = system: UACC-257 melanoma

## NC1=NS(=O)(=O)Nc2nc(-c3ccc(Cl)cc3)[nH]c21
[1]
  TGI: > 100 µM
[2]
  TGI: > 100 µM
[3]
  TGI: > 100 µM
[4]
  TGI: > 100 µM
[5]
  TGI: > 100 µM
[6]
  TGI: > 100 µM
[7]
  TGI: > 100 µM
[8]
  TGI: > 100 µM
[9]
  TGI: > 100 µM
[10]
  TGI: > 100 µM
[11]
  TGI: > 100 µM
[12]
  TGI: > 100 µM
[13]
  TGI: > 100 µM
[14]
  TGI: > 100 µM
[15]
  TGI: > 100 µM
[16]
  TGI: > 100 µM
[17]
  TGI: > 100 µM
[18]
  TGI: > 100 µM
[19]
  TGI: > 100 µM
[20]
  TGI: > 100 µM
[21]
  TGI: > 100 µM
[22]
  TGI: > 100 µM
[23]
  TGI: > 100 µM
[24]
  TGI: > 100 µM
[25]
  TGI: > 100 µM
[26]
  TGI: > 100 µM
[27]
  TGI: > 100 µM
[28]
  TGI: > 100 µM
[29]
  TGI: > 100 µM
[30]
  TGI: > 100 µM
[31]
  TGI: > 100 µM
[32]
  TGI: > 100 µM
[33]
  TGI: > 100 µM
[34]
  TGI: > 100 µM
[35]
  TGI: > 100 µM
[36]
  TGI: > 100 µM
[37]
  TGI: > 100 µM
[38]
  TGI: > 100 µM
[39]
  TGI: > 100 µM
[40]
  TGI: > 100 µM
[41]
  TGI: > 100 µM
[42]
  TGI: > 100 µM
[43]
  TGI: > 100 µM
[44]
  TGI: > 100 µM
[45]
  TGI: > 100 µM
[46]
  TGI: > 100 µM
[47]
  TGI: > 100 µM
[48]
  TGI: > 100 µM
[49]
  TGI: > 100 µM
[50]
  TGI: > 100 µM
[51]
  TGI: > 100 µM
[52]
  TGI: > 100 µM

## COC(=O)C1Cc2c([nH]c3ccccc23)C(c2ccccc2O)N1 (stereo not drawn)
[1]
  TGI: > 100 µM
[2]
  TGI: > 100 µM
[3]
  TGI: > 100 µM
[4]
  TGI: > 100 µM
[53]
  TGI: > 100 µM
[5]
  TGI: > 100 µM
[6]
  TGI: > 100 µM
[7]
  TGI: > 100 µM
[8]
  TGI: > 100 µM
[9]
  TGI: > 100 µM
[10]
  TGI: 47.1 µM
[11]
  TGI: > 100 µM
[12]
  TGI: > 100 µM
[13]
  TGI: > 100 µM
[14]
  TGI: > 100 µM
[15]
  TGI: > 100 µM
[16]
  TGI: > 100 µM
[17]
  TGI: > 100 µM
[18]
  TGI: > 100 µM
[19]
  TGI: > 100 µM
[20]
  TGI: > 100 µM
[21]
  TGI: > 100 µM
[22]
  TGI: > 100 µM
[54]
  TGI: > 100 µM
[23]
  TGI: > 100 µM
[24]
  TGI: > 100 µM
[26]
  TGI: > 100 µM
[28]
  TGI: > 100 µM
[29]
  TGI: > 100 µM
[30]
  TGI: > 100 µM
[31]
  TGI: > 100 µM
[32]
  TGI: > 100 µM
[33]
  TGI: 97.9 µM
[34]
  TGI: > 100 µM
[35]
  TGI: > 100 µM
[36]
  TGI: > 100 µM
[37]
  TGI: > 100 µM
[38]
  TGI: > 100 µM
[39]
  TGI: > 100 µM
[55]
  TGI: > 100 µM
[40]
  TGI: > 100 µM
[42]
  TGI: > 100 µM
[43]
  TGI: > 100 µM
[44]
  TGI: > 100 µM
[45]
  TGI: > 100 µM
[46]
  TGI: > 100 µM
[47]
  TGI: 75.4 µM
[48]
  TGI: > 100 µM
[49]
  TGI: > 100 µM
[51]
  TGI: > 100 µM
[52]
  TGI: 93.8 µM
